Assay results taken from patent publication EP0551200A1, “Protein phosphatase inhibitors for use in therapy” (priority 1992, dated 1993).

How the values were obtained:
IL-6 = experiment: Northern blot analysis of IL-6 gene expression in human fibroblasts; format: cell-based; conditions: regularly maintained cells
Protocol: Quiescent human fibroblasts were incubated with TNF (500 units/ml) (a) or OA (500 nM) (b) for 0, 30, 60 min after which total cellular RNA was extracted. Blots of RNA from these cells were hybridized to radiolabeled (10⁶ cpm/ml) Egr-1 cDNA probe. c, the blot in b was stripped and reprobed with c-jun cDNA. Note: Egr-1 mRNA probe was not completely stripped from the blot. The autoradiograph of the blot is presented. d, regularly maintained cells were incubated wither with no additions (control, 0 time) or with OA for 1, 3, 5, 7 h and Northern analysis was carried out with an IL-6 cDNA probe (ATCC, Rockville, MD, US).
Preparation of RNA and Northern Analysis - Human fibroblasts (4 x 10⁶) were seeded in 175cm² tissue culture flasks and incubated at 37°C for 6 days in regular medium. The cells were fed with regular medium on day 3. On day 6 the medium was replaced by minimal essential medium containing 0.25% fetal calf serum and incubated for another 48 h to maintain the cells in a quiescent state. Quiescent or regularly maintained cells were treated with a specific agonist for the times indicated (see Fig. 7). The cells were harvested and total cytoplasmic RNA isolated by a one-step guanidinium thiocyanate/phenol/chloroform method. […] The blots were autoradiographed and quantitated by the Visage 2000 Image system (BioImage Products, Ann Arbor, MI, US).

mouse fibroblasts = experiment: Total cellular protein synthesis in mouse fibroblasts; format: cell-based; conditions: data not shown
Protocol: Quiescent human fibroblasts were stimulated with MEM containing 0.5 µM okadaic acid in the presence or absence of cycloheximide (10 µg/ml) for the times indicated in Fig. 11. […] Treatment of cells with cycloheximide enhanced the induction of Egr-1 mRNA by okadaic acid at 1.5 and 3 h (Fig. 11). Similarly puromycin, like cycloheximide, also "superinduces" the induction of the Egr-1 mRNA by okadaic acid (data not shown). […] However, in view that protein phosphatase 1 (PP1) and protein phosphatase 2A (PP2A) regulate enzymes associated with cellular protein synthesis (Cohen, Annu. Rev. Biochem. 58, 453-508, 1989) the effect of okadaic acid on protein synthesis in mouse and human fibroblasts was also measured. […] By then the Egr-1 mRNA message was already induced. A corollary to this is a comparison of the amount of ³⁵S-methionine labelled Egr-1 protein immunoprecipitated by R5232 antibodies from protein phosphatase inhibitor-treated and control cells. […] Thus, the induction of the Egr-1 gene by phosphatase inhibitors is unlikely to be mediated by their late inhibitory effects on cellular protein synthesis.

human fibroblasts = experiment: Early protein phosphorylation changes in 32P-labeled cells, two-dimensional gel electrophoresis with computerized densitometry; format: cell-based
Protocol: The cells were then subjected to analysis by high resolution two-dimensional gel electrophoresis combined with computerized imaging as previously described (Guy et al, J. Biol. Chem. 266, 14343-14352, 1991).
Radiolabeling of Cells and Cell Lysis - For labeling with [³²P]orthophosphate cells were plated onto 90 mm plastic tissue culture dishes and incubated for 3 days for the cells to become confluent. Immediately before labeling, the media was removed and the cells were washed twice with 5 ml of phosphate- and serum-free media (150 mM NaCl, 5 mM MgCl₂, 5 mM KCl, 1.6 mM CaCl₂, 0.5% glucose, 10 mM Tris, 0.1% bovine serum albumin, pH 7.4) before the addition of 1 mCi/ml of [³²P]orthophosphate in 3 ml of the same media to each plate. The plates were incubated at 37°C in a humidified CO₂ incubator for 2 h before the addition of the okadaic acid or other agonists at the concentrations and for the times indicated in the figures and table. The agonists were reconstituted in aqueous buffered solution or in dimethyl sulfoxide. […] At the completion of labeling the media was removed, and the cells were rapidly washed twice with 5 ml of ice-cold phosphate-buffered saline before being solubilised in 200 µl of cytosol extraction buffer (10mM Tris-HCl, 50 mM EDTA, 50 mM NaCl, 30 mM sodium pyrophosphate, 50 mM NaF, 100µM Na₃VO₄, 0.65% Nonidet P-40, 2 mM leupeptin, 2mM phenylmethylsulfonyl fluoride, pH 7.4). The lysate was collected and centrifuged for 5 min at 14,000 rpm. The pellet containing the nuclear fraction (including the cytoskeletal-membrane fractions) was separated from the cytosolic fraction. Both fractions were lyophilized.
Two-dimensional Gel Electrophoresis - The lyophilized fractions (each of approximately 12 µg) were subjected to isoelectric focusing for 18,000 V/h with pH 3-10 ampholytes using the Millipore Investigator two-dimensional electrophoresis system (Millipore). Following this, the first-dimension gel was extruded and equilibrated in SDS buffer for 2 min before being loaded onto the second dimension 12.5% SDS-polyacrylamide gel. The gel was fixed, dried and ³²P-labeled polypeptides were located by autoradiography by using intensifying screens at -80°C. For measurement of the pH profile, carbamylated protein standards (Pharmacia LKB Biotechnology Inc.) were co-run on duplicate gels and related to proteins of known pI on previously calibrated samples. Molecular weight marker proteins from Sigma were detected by Coomassie Blue staining and marked on the autoradiogram. ³²P-Labeled 27 hsp complex prepared from human fibroblasts heat shocked at 43°C for 30 min was also used as a marker.
Quantitative Determination of Protein Phosphorylation - The amount of protein phosphorylation on autoradiographs derived from cytosolic membrane or antibody-precipitated preparations containing equal amounts of protein were analyzed by computerized densitometry using a Visage 2000 Image analysis system (BioImage Products, Ann Arbor, MI, US).
The ³²P-labeled protein spots are resolved and detected by autoradiography of the high definition two-dimensional gel electrophoresis of cytosolic extracts prepared from ³²P-labeled human fibroblasts. The radioactive spots (each representing one or more phosphoproteins) are analyzed by computerized densitometry. Each spot is arbitrarily assigned a number. […]

WISH cells = experiment: Early protein phosphorylation changes in WISH cells; format: cell-based, human; conditions: data not shown
Protocol: Cell Cultures and Reagents - Human diploid fibroblasts, FS-4, 2343 gifts from Dr. J. Vilcek (New York University). They were grown in tissue culture flasks and maintained with minimal essential medium (MEM) supplemented with 10% fetal bovine serum (Hyclone, Logan, UT, US) herein referred to as regular medium. Human WISH cells were purchased from the American Type Culture Collection. Recombinant human TNF and IL-1 with specific activities of 2 x 10⁷ units and 1 x 10⁸ units/mg protein, respectively, and of purities of ≧99% were purchased from Genzyme Corp. (Cambridge, MA, US). Phorbol 12-myristate 13-acetate, bradykinin, forskolin, dibutyryl-cyclic AMP (dBt-cAMP) and FGF were from Sigma, Okadaic acid was purchased from Biomol (Plymouth Meeting, PA, US). Radioactive [³²P]P was from Du Pont-New England Nuclear. […]
Two-dimensional Gel Electrophoresis - The lyophilized fractions (each of approximately 12 µg) were subjected to isoelectric focusing for 18,000 V/h with pH 3-10 ampholytes using the Millipore Investigator two-dimensional electrophoresis system (Millipore). […] Molecular weight marker proteins from Sigma were detected by Coomassie Blue staining and marked on the autoradiogram. ³²P-Labeled 27 hsp complex prepared from human fibroblasts heat shocked at 43°C for 30 min was also used as a marker.

[1] = cytosolic fraction, first 15 min of ligand treatment

Question: How did the “time of induction of IL-6” value (IL-6) turn out when `C=C1[C@@H](O)[C@@H]2O[C@]3(CC[C@H](/C=C/[C@@H](C)[C@@H]4CC(C)=C[C@@]5(O[C@H](C[C@@](C)(O)C(=O)O)CC[C@H]5O)O4)O3)CC[C@H]2O[C@@H]1[C@@H](O)C[C@H](C)[C@H]1O[C@@]2(CCCCO2)CC[C@H]1C` [okadaic acid] was run?
Answer: 7 h

Question: And the “effect on total cellular protein synthesis (in words)” value (mouse fibroblasts; 0.5 µM, first 2 h)?
Answer: little measurable effect

Question: And the inhibition at 0.5 µM (mouse fibroblasts; Mus musculus, Fibroblast, at 4 h)?
Answer: ≤ 50%

Question: And the “number of proteins dephosphorylated” value (human fibroblasts; [1])?
Answer: six

Question: What about the “number of proteins with early phosphorylation changes” value (human fibroblasts; [1]) of the same compound?
Answer: about 60 proteins

Question: And the “identity of changes in early protein phosphorylation with those induced by TNF” value (human fibroblasts; cytosolic fraction, okadaic acid, 15 min, TNF 50 units/ml)?
Answer: about 95%

Question: And the “changes in protein phosphorylation compared with TNF treatment (in words)” value (human fibroblasts; nuclear/cytoskeletal membrane fraction, 46-50 proteins, 15 min)?
Answer: almost identical changes

Question: And the “changes in early protein phosphorylation compared with TNF (in words)” value (WISH cells)?
Answer: almost identical changes
